Test results as given in PMC8079061 (Pharmaceutical Biology, 2021).

Columns and labels:
[1] = tested on: RLM; experiment: Inhibition of poziotinib metabolism; assay type: in vitro ADME, rat
[2] = tested on: HLM; experiment: Inhibition of poziotinib metabolism; assay type: in vitro ADME, human
[3] = target: recombinant human CYP3A4 (Homo sapiens, UniProt P08684); experiment: Inhibition of poziotinib metabolism; assay type: in vitro ADME; details: CYP3A4, stated in abstract
[4] = target: recombinant human CYP2D6 (Homo sapiens, UniProt P10635); experiment: Inhibition of poziotinib metabolism; assay type: in vitro ADME; details: CYP2D6, stated in abstract
Chain of recombinant human CYP2D6 (P10635 whole entry): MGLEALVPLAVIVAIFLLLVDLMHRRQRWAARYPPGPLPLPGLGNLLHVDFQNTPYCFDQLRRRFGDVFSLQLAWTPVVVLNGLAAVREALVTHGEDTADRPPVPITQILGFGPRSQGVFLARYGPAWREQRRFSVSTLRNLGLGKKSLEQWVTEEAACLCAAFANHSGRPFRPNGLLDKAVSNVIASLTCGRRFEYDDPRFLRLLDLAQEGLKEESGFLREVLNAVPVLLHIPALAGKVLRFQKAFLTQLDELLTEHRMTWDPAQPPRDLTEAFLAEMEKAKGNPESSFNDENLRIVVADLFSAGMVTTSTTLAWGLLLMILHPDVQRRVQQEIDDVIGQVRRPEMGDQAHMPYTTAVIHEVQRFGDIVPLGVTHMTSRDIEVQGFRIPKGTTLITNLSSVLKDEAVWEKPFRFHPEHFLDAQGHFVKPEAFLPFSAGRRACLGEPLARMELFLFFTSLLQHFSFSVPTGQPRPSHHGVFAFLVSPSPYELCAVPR

[5] = healthy volunteers, coadministered with paroxetine; ref Ruiz-Garcia et al. [2014]; cited from earlier work
[6] = assay type: in vivo, Sprague–Dawley rats
[7] = dogs, oral dose of 0.3 mg/kg poziotinib; ref Kim et al. [2013]; cited from earlier work
[8] = patients, combined with paclitaxel and trastuzumab; ref Kim TY et al. [2019]; cited from earlier work
[9] = rat, preadministered with dacomitinib (10 mg/kg) for two weeks

Chain of recombinant human CYP3A4 (P08684 whole entry): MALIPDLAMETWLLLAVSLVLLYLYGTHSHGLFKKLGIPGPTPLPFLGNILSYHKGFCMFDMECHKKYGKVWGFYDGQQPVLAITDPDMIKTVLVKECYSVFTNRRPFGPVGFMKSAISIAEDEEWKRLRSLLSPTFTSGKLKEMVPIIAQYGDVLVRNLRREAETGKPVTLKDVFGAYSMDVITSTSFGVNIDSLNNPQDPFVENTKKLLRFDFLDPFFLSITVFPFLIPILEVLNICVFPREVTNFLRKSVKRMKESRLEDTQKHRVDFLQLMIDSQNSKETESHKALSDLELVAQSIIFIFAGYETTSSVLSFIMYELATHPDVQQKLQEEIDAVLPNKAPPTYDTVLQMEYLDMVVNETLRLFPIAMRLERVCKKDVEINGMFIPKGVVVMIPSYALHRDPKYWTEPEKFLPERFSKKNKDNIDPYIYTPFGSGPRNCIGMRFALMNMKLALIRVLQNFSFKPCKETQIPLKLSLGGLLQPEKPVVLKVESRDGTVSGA

COc1cc2ncnc(Nc3ccc(F)c(Cl)c3)c2cc1NC(=O)/C=C/CN1CCCCC1 [dacomitinib, Dacomitinib]
mechanism of inhibition of poziotinib metabolism [1]: mixed inhibitor
Ki ([1]; M1): 8.18 µM
αKi ([1]; M1): 38.81 µM
Inhibition type ([1]; M1, Lineweaver–Burk plot): Mixed
Ki ([1]; M2): 47.5 µM
αKi ([1]; M2): 38.07 µM
Inhibition type ([1]; M2, Lineweaver–Burk plot): Mixed
mechanism of inhibition of poziotinib metabolism [2]: mixed inhibitor
Ki ([2]; M1): 83.7 µM
αKi ([2]; M1): 93.73 µM
Inhibition type ([2]; M1, Lineweaver–Burk plot): Mixed
Ki ([2]; M2): 0.17 µM
Inhibition type ([2]; M2, Lineweaver–Burk plot): Mixed
mechanism of inhibition of poziotinib metabolism [3]: mixed way
mechanism of inhibition of poziotinib metabolism [4]: mixed way
increase of dacomitinib exposure [5]: 37%

C=CC(=O)N1CCC(Oc2cc3c(Nc4ccc(Cl)c(Cl)c4F)ncnc3cc2OC)CC1 [poziotinib, Poziotinib]
delay of Tmax of poziotinib after pre-treatment with dacomitinib ([6]; rat): ~3 h
increase of AUC(0–t) of poziotinib, test group vs control group ([6]; rat, dacomitinib pre-treatment two weeks, p < 0.01): 1.6 fold
increase of Tmax of poziotinib, test group vs control group [6, 9]: 1.3 fold
increase of t1/2 of poziotinib, test group vs control group [6, 9]: 1.6 fold
adverse effects observed ([6]; rats, poziotinib 10 mg/kg oral with or without dacomitinib): No obvious adverse effects were observed
Tmax [7]: 0.40 to 1.00 h
t1/2 [7]: 3.40 to 5.40 h
maximum tolerated dose (MTD) [8]: 8 mg/day
